Results: PubChem BioAssay (NCI)
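96-well plates; 48 h exposure; 5 concentrations. Endpoints by linear interpolation between flanking doses. Not reached: highest tested concentration assigned. Here, GI50 denotes the concentration required for 50% inhibition of growth. TGI marks complete inhibition of growth.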

Assays:
Assay in all cases: NCI tumour cell line growth inhibition, 48 h
SF-268 CNS = system: SF-268 CNS
HS 578T breast = system: HS 578T breast
NCI-H226 lung = system: NCI-H226 lung
SW-620 colon = system: SW-620 colon
MALME-3M melanoma = system: MALME-3M melanoma
HT29 colon = system: HT29 colon
SR leukemia = system: SR leukemia
HCT-116 colon = system: HCT-116 colon

SMILES | GI50 (SF-268 CNS) [µM] | TGI (SF-268 CNS) [µM] | GI50 (HS 578T breast) [µM] | TGI (HS 578T breast) [µM] | GI50 (NCI-H226 lung) [µM] | TGI (NCI-H226 lung) [µM] | GI50 (SW-620 colon) [µM] | TGI (SW-620 colon) [µM] | GI50 (MALME-3M melanoma) [µM] | TGI (MALME-3M melanoma) [µM] | GI50 (HT29 colon) [µM] | TGI (HT29 colon) [µM] | GI50 (SR leukemia) [µM] | TGI (SR leukemia) [µM] | GI50 (HCT-116 colon) [µM] | TGI (HCT-116 colon) [µM]
CCN(CC)C(=S)SSC(C)C | 16.2 | 37 | 0.936 | 28.3 | 29.4 | > 100 | 3.01 | 14 | 13.7 | 30 | 14.8 | 29.8 | – | – | – | –
COc1ccc(-n2c(=S)sc3c(Cl)nc(C)nc32)c(OC)c1 | 2.17 | 5.21 | 2.66 | 7.71 | 3.22 | 12 | 2.57 | 5.44 | 2.23 | 6.23 | 2.41 | 6.28 | 1.42 | 5.52 | 1.83 | 3.71
COc1cc(N2C(=O)[C@H](Cl)C2c2ccc(SC)cc2)cc(OC)c1OC (some centres not stated) | 0.0841 | > 100 | 0.101 | > 100 | 0.37 | > 100 | 0.0453 | > 100 | – | – | 0.0438 | > 100 | 0.0473 | > 100 | 0.035 | 1
COC(=O)C(C(=O)C(=O)Nc1c(C)cccc1C(C)(C)C)c1nc2ccc(Cl)cc2[nH]c1=O (configuration not stated) | – | > 100 | – | > 100 | – | > 100 | – | > 100 | – | > 100 | – | > 100 | – | > 100 | – | > 100
Oc1ccc(Cl)cc1C=Nc1cnc2ccccc2c1 | – | > 100 | – | > 100 | – | > 100 | – | > 100 | – | > 100 | – | > 100 | – | > 100 | – | > 100
Cc1cccc(C2NC(=O)c3ccccc3N2)c1 (configuration not stated) | – | > 100 | – | 65.1 | – | 50.5 | – | > 100 | – | > 100 | – | > 26.3 | – | > 100 | – | > 100
COc1ccc(-n2cc(-c3ccc(OC)c(OC)c3)[nH]c2=O)cc1 | > 100 | > 100 | > 100 | > 100 | > 100 | > 100 | > 100 | > 100 | > 100 | > 100 | > 100 | > 100 | > 100 | > 100 | > 100 | > 100
CC(C)C[C@@H](N)[C@@H](O)C(=O)N[C@H](C(=O)N[C@H](C(=O)N[C@@H](CC(=O)O)C(=O)O)C(C)C)C(C)C | > 20 | > 20 | > 20 | > 20 | > 20 | > 20 | > 20 | > 20 | > 20 | > 20 | > 20 | > 20 | – | – | > 20 | > 20
N=C1CCCC1C(=S)SCCC(N)=O (configuration not stated) | – | > 100 | – | > 100 | – | > 100 | – | > 100 | – | > 100 | – | > 100 | – | > 100 | – | > 100
COc1cc2c(cc1C)NC(=O)/C2=C/c1ccnc2ccccc12 | 18 | > 50 | 40.1 | > 50 | – | – | > 50 | > 50 | – | – | – | – | 8.47 | > 50 | 24.4 | > 50
Cc1n[nH]c2ccccc2c1=O | – | > 100 | – | > 100 | – | > 100 | – | > 100 | – | > 100 | – | > 100 | – | > 100 | – | > 100
Nc1cc2c3c(cccc3c1)C(=O)N(CCN1CCCC1)C2=O | 4.62 | 30.5 | 4.83 | 35 | 1.98 | 6.23 | 2.39 | > 53.8 | 2.49 | 7.68 | 3.11 | 22.2 | 0.979 | > 22.4 | 2.73 | > 35
NC(N)=N/N=C\c1ccc(OCc2ccccc2)cc1 | 3.47 | 17.4 | 1.75 | 4.81 | 4.87 | 24.2 | 1.64 | 3.3 | 2.32 | 6.03 | 1.87 | 3.87 | – | – | 1.51 | 3.14
CCC[CH2][Sn-]([CH2]CCC)([CH2]CCC)[O]C(=O)C(C)C | 0.144 | 0.333 | 0.354 | 1.92 | 0.161 | 0.34 | 0.124 | 0.272 | 0.0229 | 0.204 | 0.0573 | 0.208 | – | – | 0.0553 | 0.182
Cc1cccc(N2C(=O)/C(=C/C(Cl)=C/c3ccc([N+](=O)[O-])cc3)SC2=S)c1C | – | – | 2.8 | > 100 | – | – | 1.95 | 4.77 | – | – | 1.13 | > 100 | 0.404 | > 100 | 1.33 | 3.08
COc1ccc2c(c1)C(=O)c1c-2c(OCCCN(C)C)nc2cc(Br)ccc12 | 2.5 | 10.4 | 3.46 | 15.4 | 4.63 | 18.7 | 5.2 | 20 | 1.87 | 4.64 | 10.5 | 26.8 | – | – | 5.16 | 18.5
COc1cc(O)ccc1C(=S)SC | – | > 100 | – | 98.5 | – | 76.9 | – | > 100 | – | > 100 | – | > 100 | – | > 100 | – | > 100
COc1ccc(-c2ccc(OC)c(OC)c2OC)cc1 | 9.28 | > 100 | 1.82 | > 23.1 | 17.3 | > 100 | 0.528 | > 100 | 9.53 | > 100 | 0.529 | > 100 | 0.572 | > 100 | 1.13 | 32.6
C[C@@]1(F)[C@H](O)[C@@H](CO)O[C@H]1n1ccc(=O)[nH]c1=O | > 100 | > 100 | > 100 | > 100 | > 100 | > 100 | > 100 | > 100 | > 100 | > 100 | > 100 | > 100 | > 100 | > 100 | > 100 | > 100
O=C(Nc1n[nH]c2cc(-c3cc(F)ccc3F)ccc12)C1CC1 | 19.5 | > 25 | 13.1 | > 25 | 18.4 | > 25 | 10.7 | > 25 | 14.2 | > 25 | 9.42 | > 25 | 6.38 | > 25 | 9.78 | > 25

SMILES | GI50 (SF-268 CNS) [µM] | TGI (SF-268 CNS) [µM] | GI50 (HS 578T breast) [µM] | TGI (HS 578T breast) [µM] | GI50 (NCI-H226 lung) [µM] | TGI (NCI-H226 lung) [µM] | GI50 (SW-620 colon) [µM] | TGI (SW-620 colon) [µM] | GI50 (MALME-3M melanoma) [µM] | TGI (MALME-3M melanoma) [µM] | GI50 (HT29 colon) [µM] | TGI (HT29 colon) [µM] | GI50 (SR leukemia) [µM] | TGI (SR leukemia) [µM] | GI50 (HCT-116 colon) [µM] | TGI (HCT-116 colon) [µM]
CC1CCC2C(C)C(=O)OC2C2(C)C(=O)C=CC12 (configuration not stated) | – | > 10 | – | > 10 | – | > 10 | – | > 10 | – | – | – | > 10 | – | > 10 | – | > 10
O=C(Nc1ccc(Cl)cc1C(F)(F)F)C(=O)Nn1c(=S)[nH]c2ccccc2c1=O | – | > 100 | – | > 100 | – | > 100 | – | > 100 | – | – | – | > 100 | – | – | – | > 100
O=c1[nH]c(C2CCCN2)nc2c1oc1ccc(Cl)cc12 (configuration not stated) | > 100 | > 100 | 28.3 | > 100 | 18.6 | > 100 | 49.4 | > 100 | 46.3 | > 100 | > 100 | > 100 | 61.1 | > 100 | > 90.7 | > 100
COc1cc(C2CC(c3ccc(Nc4nc(NCCO)nc(NCCO)n4)cc3)=NN2c2cc(Cl)cc(Cl)c2)cc(OC)c1OC (configuration not stated) | 1.52 | 4.09 | 0.644 | 3.34 | 3.85 | 16.8 | 1.8 | 3.79 | 1.96 | 3.84 | 1.52 | 3.25 | 1.29 | 4.11 | 1.28 | 2.67
O=c1c(Cc2ccc3c(c2)OCO3)nnc2sc(-c3cc(F)c(Cl)cc3Cl)nn12 | 41.7 | > 100 | – | – | 85.6 | > 100 | 19.4 | 49.1 | 24.7 | 85.3 | 35.2 | > 100 | – | – | 23.5 | > 100
Clc1ccccc1C(Nc1cnccn1)Nc1cnccn1 | – | > 100 | – | > 100 | – | > 100 | – | > 100 | – | > 100 | – | > 100 | – | – | – | > 100
CCCCCCCC/C=C/CCCCCCCC1=NC(C)(C)CN1C(C)(C)CO | 2.01 | 3.84 | 1.84 | 3.9 | 2.87 | 7.61 | 1.63 | 3.11 | – | – | 1.45 | 3.38 | – | – | 1.52 | 2.9
O=C1/C(=C/c2ccccc2)Oc2cc(O)ccc21 | – | > 100 | – | > 100 | – | > 100 | – | > 100 | – | – | – | > 100 | – | > 100 | – | > 100
COc1c2ccoc2nc2c(OC)c(OCC(O)C(C)(C)O)ccc12 (configuration not stated) | – | > 100 | – | > 100 | – | > 100 | – | > 100 | – | > 100 | – | > 100 | – | – | – | > 100
O=C(Nc1sc2c(c1C(=O)O)CCCC2)c1ccco1 | 25.7 | > 50 | > 50 | > 50 | – | – | > 50 | > 50 | – | – | – | – | 46.2 | > 50 | 31 | > 50
NCCO/C=C/C(N)C(=O)O (configuration not stated) | – | > 100 | – | > 100 | – | > 100 | – | > 100 | – | – | – | > 100 | – | – | – | > 100
Cn1c(COC(=O)NCCc2ccccn2)nc2c(N3CCOCC3)nc(Cl)nc21 | 1.52 | 3.11 | 2 | 6.22 | 12.3 | 30.4 | 1.28 | 2.98 | 1.77 | 3.38 | 1.17 | 3.17 | – | – | 0.847 | 2.25
C/C(=N/NC(=S)Nc1ccccc1)c1nc2ccc(Cl)cc2[nH]1 | 0.0747 | 0.858 | 0.57 | 1.96 | 0.134 | 0.925 | 0.208 | 0.99 | 0.0737 | 0.401 | – | – | 0.0881 | 1.23 | 0.0811 | 0.771
CC(C)Cc1cnc(CC(C)C)c(=O)[nH]1 | – | > 100 | – | > 100 | – | – | – | > 100 | – | – | – | > 100 | – | > 100 | – | > 100
Cn1c(COC(=O)NCCn2ccnc2)nc2c(N3CCOCC3)nc(-c3ccccc3)nc21 | 1.29 | 2.66 | 1.06 | 3.59 | 1.72 | 3.6 | 0.226 | 0.58 | 1.38 | 2.72 | 0.372 | 1.47 | – | – | 0.136 | 0.351
CN(C)CCC(=O)Nc1ccc(-n2cc(-c3cccc(NC(=S)Nc4cccc(-c5cn(-c6ccc(NC(=O)CCN(C)C)cc6)nn5)c4)c3)nn2)cc1 | 24.5 | 75.6 | 33.4 | > 100 | 35.3 | > 100 | 4.26 | > 100 | – | – | 6.03 | > 100 | 26.2 | > 100 | 12.7 | 40.4
CSc1nc(Nc2cccc(NC(=O)CCl)c2)c(C#N)c(-c2cccc([N+](=O)[O-])c2)n1 | 2.24 | 5.72 | 3.21 | 30.7 | 2.15 | 6.32 | 1.93 | 5.11 | 0.191 | 0.635 | 2.36 | 5.53 | 0.387 | > 100 | – | –
CCOC(=O)Nc1ccc2nc(-c3cscn3)[nH]c2c1 | 18 | > 100 | 8.3 | 92.6 | 30.7 | > 100 | 2.95 | > 100 | 1.75 | > 100 | 2.6 | 97.5 | – | – | 3.87 | > 100
O=c1c(-c2ccc3c(c2)OCO3)coc2c3c(ccc12)OCO3 | – | 43.3 | – | 59.4 | – | – | – | > 100 | – | – | – | – | – | > 100 | – | > 100
